According to US5300672A (priority 1992, dated 1994):
Like-named read-outs stand apart in the source and are kept apart here.

Legend:
[1] = tested on: Erysiphe graminis (f. sp. tritici); test: whole plant or invertebrate; format: in vivo
[2] = tested on: Piricularia oryzae; test: whole plant or invertebrate; format: in vivo
[3] = tested on: Pseudoperonospora cubensis; test: whole plant or invertebrate; format: in vivo; settings: for pest or weed control at 200 ppm / pest or weed control at 50 ppm: Pseudoperonospora cubensis, in Cucumis sativus, 168 h, read-out: % Control CDM
[4] = tested on: Puccinia recondita (f. sp. tritici Races PKB and PLD); test: whole plant or invertebrate; format: in vivo
[5] = tested on: Pseudomonas fluorescens; test: Alternate Minimum Inhibitory Concentrations Test (Table 4), Ps.fl; format: cell-based; settings: Table 4 alternate test, 250 ppm to 0.8 ppm in TSB, 72 hours, 30° C.; for MIC: Pseudomonas fluorescens, read-out: MIC Ps.fl
Protocol: The compounds of Examples 1-8, 12-26, 28-33, 36-37, 39-42, 44-109, 111-114, and 116-120 were subjected also to the following alternate biocidal activity test procedures with the results as indicated in Table 4.
The MIC test measures the viability of Pseudomonas fluorescens inoculum in TSB when exposed for 72 hours to varying concentrations of test compound.
A 125 μl aliquot of 10,000 ppm test compound in acetone was added to 4.88 ml of TSB to provide a 250 ppm solution. From this solution, 100 μL was transferred to the first row of two microtiter plate columns. Both replicates and five additional compounds were all serially diluted 1:1 to a final concentration of 0.8 ppm in TSB.
Inoculation was accomplished by diluting a 24 hr Ps fl culture, four mls per 36 mls of phosphate buffer solution. A Dynatech autoinoculator was used to transfer 1.5 μl of this cell suspension to the microtiter plates. The plates were incubated at 30° C. for 3 days before the lowest concentration at which no growth occurs was recorded in the database.

[6] = tested on: Phytophthora infestans; test: whole plant or invertebrate; format: in vivo
[7] = tested on: Puccinia graminis (f. sp. tritici Race 15B-2); test: whole plant or invertebrate; format: in vivo; settings: Puccinia graminis, 336 h, read-out: % Control WSR
[8] = tested on: Pellicularia filamentosa (f. sp. sasiki); test: whole plant or invertebrate; format: in vivo; settings: for % Control RSB: in vivo
[9] = Blumeria graminis, read-out: % Control WPM
[10] = Pyricularia oryzae, read-out: % Control RB, application rate 200 ppm
[11] = Puccinia recondita, 240 h, read-out: % Control WLR
[12] = Phytophthora infestans, in Solanum lycopersicum, 96 h, read-out: % Control TLB
[13] = Pyricularia oryzae, read-out: % Control RB
[14] = Phytophthora infestans, in Solanum lycopersicum, 96 h, read-out: % Control TLB, application rate 200 ppm

Row | Molecule | pest or weed control at 200 ppm [1, 9] | pest or weed control at 200 ppm [2, 10] | pest or weed control at 200 ppm [3] | pest or weed control at 200 ppm [4, 11] | MIC [5] | pest or weed control at 200 ppm [6, 12] | pest or weed control at 200 ppm ([8]; 120 h, read-out: % Control RSB) | other results
1 | CC(C)(C)CC(C)(C)NC(=O)/C=C\SC(=O)c1ccccc1 [Compound 114] | 0% | 0% | 95% | 0% | > 250 µg/mL | 90% | – | pest or weed control at 100 ppm [7]: 50%
2 | CCCCCCCCNC(=O)/C=C\SC(=O)c1sccc1C [Compound 50, N-octyl-cis-3-[(3-methyl-2-thiophene)carbonylthio]acrylamide] | – | 0% | – | – | > 250 µg/mL | – | – | pest or weed control at 50 ppm [3]: 85%; pest or weed control at 100 ppm [6, 12]: 80%; pest or weed control at 200 ppm [7]: 75%
3 | CCCCCCCCNC(=O)/C=C\SC(=O)C1CC1 [Compound 49, N-octyl-cis-3-(cyclopropanecarbonylthio)acrylamide] | – | – | – | – | > 250 µg/mL | – | – | pest or weed control at 12 ppm ([2]; Pyricularia oryzae, read-out: % Control RB, application rate 12 ppm): 50%; pest or weed control at 50 ppm [3]: 99%; pest or weed control at 100 ppm [6, 12]: 80%; pest or weed control at 200 ppm [7]: 75%
4 | CCCCC/C=C/C(=O)S/C=C\C(=O)NCCCCCCCC [Compound 92, N-octyl-cis-3-[(trans-2-octenoyl)thio]acrylamide] | – | – | 85% | – | > 250 µg/mL | 90% | 0% | pest or weed control at 50 ppm [1, 9]: 50%; pest or weed control at 200 ppm [2, 13]: 70%; pest or weed control at 50 ppm [4, 11]: 50%
5 | CCCCCCCCNC(=O)/C=C\SC(=O)c1ccc([N+](=O)[O-])cc1 [Compound 46, N-octyl-cis-3-[(4-nitrobenzoyl)thio]acrylamide] | – | 75% | – | – | > 250 µg/mL | – | – | pest or weed control at 100 ppm [1, 9]: 0%; pest or weed control at 50 ppm [3]: 99%; pest or weed control at 25 ppm [4, 11]: 80%; pest or weed control at 100 ppm ([6]; Phytophthora infestans, in Solanum lycopersicum, 96 h, read-out: % Control TLB, application rate 100 ppm): 95%; pest or weed control at 200 ppm [7]: 100%
6 | CCCCCCCCNC(=O)/C=C\SC(=O)c1ccc(OCCCCCCC)cc1 [Compound 45, N-octyl-cis-3-[(4-heptoxybenzoyl)thio]acrylamide] | 0% | 0% | 0% | 0% | > 250 µg/mL | – | 80% | pest or weed control at 200 ppm [6, 14]: 0%
7 | CCCCCCCCNC(=O)/C=C\SC(=O)c1ccnc2ccccc12 [Compound 95, N-octyl-cis-3-[(4-quinoline)carbonylthio]acrylamide] | 0% | – | 95% | 50% | > 250 µg/mL | 80% | 0% | pest or weed control at 50 ppm [2, 13]: 70%
8 | CCCCCCCCNC(=O)/C=C\SC(=O)CCc1ccccc1 [Compound 91, N-octyl-cis-3-[(3-phenylpropanoyl)thio]acrylamide] | – | – | 70% | 25% | – | 80% | – | pest or weed control at 12 ppm [1, 9]: 85%; pest or weed control at 200 ppm [2, 13]: 70%; MIC Ps.fl [5]: > 250 Ppm; % Control RSB [8]: 0 % Control
9 | CCCCCCCCNC(=O)/C=C\SC(=O)CC1CCCCC1 [Compound 94, N-octyl-cis-3-(cyclohexaneacetylthio)acrylamide] | 85% | 90% | 70% | 50% | > 250 µg/mL | 80% | 0% | –
10 | CCCCCCCCNC(=O)/C=C\SC(=O)c1c[nH]c2ccccc12 [Compound 77, N-octyl-cis-3-[(3-indole)carbonylthio]acrylamide] | 0% | 90% | 85% | 80% | > 250 µg/mL | 90% | 0% | –
11 | CCCCCCCCNC(=O)/C=C\SC(=O)CC=Cc1ccccc1 [Compound 88, N-octyl-cis-3-[(4-phenylbut-3-enoyl)thio]acrylamide] | 0% | 90% | 70% | – | > 250 µg/mL | 90% | – | pest or weed control at 50 ppm [4, 11]: 80%; pest or weed control at 100 ppm [7]: 0%
12 | CCCCCCCCNC(=O)/C=C\SC(=O)CC1CC(C(C)=O)C1(C)C (centres unmarked) [Compound 75] | 0% | 50% | 0% | 50% | > 250 µg/mL | – | – | pest or weed control at 50 ppm [6, 12]: 90%; pest or weed control at 12 ppm ([8]; 120 h, read-out: % Control RSB): 0%
13 | CCCCCCCCNC(=O)/C=C\SC(=O)CCCC(=O)OC [Compound 85, N-octyl-cis-3-[(4-methoxycarbonylbutanoyl)thio]acrylamide] | 0% | 90% | 70% | 80% | > 250 µg/mL | 90% | 0% | –
14 | C=CCCC(=O)S/C=C\C(=O)NCCCCCCCC [Compound 83, N-octyl-cis-3-[(4-pentenoyl)thio]acrylamide] | 0% | 50% | 95% | 50% | > 250 µg/mL | 90% | 0% | –
15 | CCCCCCCCNC(=O)/C=C\SC(=O)c1ccc(Br)o1 [Compound 111, N-octyl-cis-3-[(5-bromo-2-furoyl)thio]acrylamide] | 0% | 0% | 85% | 0% | > 250 µg/mL | 80% | – | –
16 | CCCCCCCCNC(=O)/C=C\SC(=O)c1ccc(Cl)cc1Cl [Compound 100, N-octyl-cis-3-[(2,4-dichlorobenzoyl)thio]acrylamide] | 50% | 0% | 50% | 0% | > 250 µg/mL | – | – | pest or weed control at 200 ppm [6, 14]: 0%
17 | CCCCCCCCNC(=O)/C=C\SC(=O)c1cc([N+](=O)[O-])cc([N+](=O)[O-])c1 [Compound 97, N-octyl-cis-3-[(3,5-dinitrobenzoyl)thio]acrylamide] | – | – | – | 0% | > 250 µg/mL | 80% | 0% | pest or weed control at 12 ppm [1, 9]: 50%; pest or weed control at 200 ppm [2, 13]: 70%; pest or weed control at 50 ppm [3]: 0%
18 | N-octyl-cis-3-(ferrocenecarbonylthio)acrylamide [Compound 81] | – | – | – | – | – | – | – | % Control WPM ([1]; in vivo): 85 % Control; % Control RB ([2]; in vivo): 75 % Control; % Control CDM ([3]; in vivo): 0 % Control; % Control WLR ([4]; in vivo): 25 % Control; MIC Ps.fl [5]: > 250 Ppm; % Control TLB ([6]; in vivo): 100 % Control; % Control RSB [8]: 0 % Control
19 | CC/C=C/C(=O)S/C=C\C(=O)NCCCCCCCC [Compound 84, N-octyl-cis-3-[(trans-2-pentenoyl)thio]acrylamide] | 0% | 0% | 0% | 50% | > 250 µg/mL | 90% | 0% | –
20 | CCCCCCCCNC(=O)/C=C\SC(=O)c1ccc(C)cc1 [Compound 106, N-octyl-cis-3-[(4-methylbenzoyl)thio]acrylamide] | 0% | 0% | 50% | 0% | > 250 µg/mL | – | – | pest or weed control at 200 ppm [6, 14]: 0%
21 | CC(=O)S/C=C\C(=O)NC1CCCCCCCCCCC1 [Compound 90, N-cyclododecyl-cis-3-(acetylthio)acrylamide] | – | 0% | 85% | 0% | > 250 µg/mL | – | 0% | pest or weed control at 50 ppm [1, 9]: 0%; pest or weed control at 200 ppm [6, 14]: 0%
22 | CCCCCCCCNC(=O)/C=C\SC(=O)C1C=CCC=C1C (stereo not drawn) [Compound 101, N-octyl-cis-3-[(2-methylcyclohexa-2,5-diene)carbonylthio]acrylamide] | 0% | 75% | 50% | 0% | > 250 µg/mL | – | – | pest or weed control at 200 ppm [6, 14]: 0%
